Laboratory results published in the supplement of paper PMC10307832.

Each cell line was assayed with Cn1nnc2c(C(N)=O)ncn2c1=O [Temozolomide] (assay: relative viability (nuclei count vs DMSO), 5 days (fraction); higher = more cells survive). Settings: 20 µM.
Method in brief: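 Lung cancer cell lines were seeded into 1536-well plates, kept overnight at 37 °C and pinned with five library-drug doses (not always all listed) spaced by √10. After 5 days, nuclei were Hoechst-stained, imaged at 4× and counted with MetaXpress. Viability is treated-well nuclei over vehicle-well nuclei, taken as a median across plates. Plates needed control CV below 25% and at least one doubling.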

In order of rising relative viability:
1. HCC-827  0.177
2. H3255  0.231
3. LK-2  0.407
4. COR-L 105  0.507
5. NCI-H322M  0.577
6. EKVX  0.66
7. NCI-H1623  0.66
8. EPLC-272H  0.677
9. LC-2-ad  0.78
10. LOU-NH91  0.786
11. SW 900  0.793
12. HARA  0.831
13. LXF-289  0.892
14. NCI-H1648  0.893
15. NCI-H2342  0.912
16. NCI-H522  0.915
17. LCLC-103H  0.92
18. ChaGo-K-1  0.928
19. HCC-78  0.931
20. IA-LM  0.951
21. Calu-6  0.99
22. HCC-366  0.992
23. NCI-H23  0.993
24. EMC-BAC-2  1
25. HCC-44  1.01
26. HOP-62  1.01
27. LU99A  1.03
28. HCC-15  1.07
29. EBC-1  1.09
30. LCLC-97TM1  1.1
31. NCI-H441  1.15

The cell lines below were run with C[C@@H](C(=O)N[C@@H](C1CCCCC1)C(=O)N2CCC[C@H]2C(=O)N[C@@H]3[C@@H](CC4=CC=CC=C34)OCC#CC#CCO[C@@H]5CC6=CC=CC=C6[C@@H]5NC(=O)[C@@H]7CCCN7C(=O)[C@H](C8CCCCC8)NC(=O)[C@H](C)NC)NC [AZD5582] + CS(=O)(=O)N1CCN(Cc2cc3nc(-c4cccc5[nH]ncc45)nc(N4CCOCC4)c3s2)CC1 [Pictilisib] (partner 1 µM) (assay: relative viability (nuclei count vs DMSO), 5 days (fraction); higher = more cells survive). Settings: first compound 0.001581 µM.
Method in brief: (§1)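 Five library-drug doses in √10 steps were combined with a fixed anchor-drug dose, or a single drug was given alone, by pin tool to lung cancer cell lines in 1536-well plates the day after seeding. Nuclei were stained and counted after 5 days. Relative viability is the nuclei count in treated wells over that in vehicle wells, taken as the median of duplicate plates.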

In order of falling relative viability:
1. HCC-827  0.995
2. Calu-6  0.779
3. ChaGo-K-1  0.757
4. COR-L23  0.71
5. LXF-289  0.705
6. 201T  0.697
7. LCLC-103H  0.649
8. ABC-1  0.586
9. A-427  0.567
10. HCC-15  0.566
11. LOU-NH91  0.557
12. NCI-H322M  0.554
13. HARA  0.553
14. BEN  0.54
15. HCC-44  0.485
16. A549  0.474
17. LK-2  0.474
18. H3255  0.472
19. EMC-BAC-2  0.469
20. HOP-62  0.445
21. NCI-H23  0.419
22. NCI-H441  0.419
23. COR-L 105  0.413
24. EKVX  0.399
25. LC-2-ad  0.327
26. LU99A  0.315
27. CAL-12T  0.305
28. EBC-1  0.256
29. HCC-78  0.198
30. EPLC-272H  0.115
31. HCC-366  0.0939

Same assay, conditions: first compound 0.005 µM

In order of rising relative viability:
1. EPLC-272H  0.0891
2. HCC-366  0.203
3. HCC-78  0.24
4. LCLC-97TM1  0.244
5. CAL-12T  0.314
6. LU99A  0.323
7. EBC-1  0.328
8. IA-LM  0.355
9. NCI-H23  0.387
10. H3255  0.454
11. A549  0.477
12. HARA  0.494
13. COR-L 105  0.505
14. LOU-NH91  0.521
15. EMC-BAC-2  0.523
16. NCI-H441  0.536
17. BEN  0.561
18. EKVX  0.568
19. LK-2  0.575
20. HCC-15  0.596
21. HCC-44  0.6
22. NCI-H322M  0.632
23. HOP-62  0.655
24. A-427  0.671
25. LC-2-ad  0.673
26. LCLC-103H  0.699
27. 201T  0.733
28. LXF-289  0.795
29. COR-L23  0.818
30. ABC-1  0.93
31. HCC-827  0.954
32. ChaGo-K-1  0.965

Same assay, conditions: first compound 0.01581 µM

In order of rising relative viability:
1. HCC-366  0.102
2. HCC-78  0.147
3. LCLC-97TM1  0.15
4. EPLC-272H  0.216
5. HOP-62  0.256
6. CAL-12T  0.265
7. COR-L 105  0.288
8. LU99A  0.291
9. EBC-1  0.346
10. IA-LM  0.347
11. EKVX  0.362
12. HARA  0.381
13. H3255  0.392
14. NCI-H441  0.405
15. NCI-H23  0.408
16. EMC-BAC-2  0.414
17. ChaGo-K-1  0.432
18. LCLC-103H  0.454
19. HCC-44  0.461
20. ABC-1  0.478
21. LOU-NH91  0.534
22. LK-2  0.581
23. A549  0.585
24. COR-L23  0.621
25. HCC-15  0.621
26. LC-2-ad  0.644
27. BEN  0.654
28. 201T  0.703
29. NCI-H322M  0.715
30. A-427  0.734
31. LXF-289  0.757
32. Calu-6  0.939
33. HCC-827  0.979

Same assay, conditions: first compound 0.05 µM

In order of rising relative viability:
1. EPLC-272H  0.0826
2. LCLC-97TM1  0.154
3. HCC-78  0.169
4. HCC-366  0.205
5. HCC-44  0.233
6. IA-LM  0.314
7. NCI-H23  0.327
8. EMC-BAC-2  0.328
9. HARA  0.338
10. EBC-1  0.344
11. CAL-12T  0.351
12. LU99A  0.37
13. H3255  0.39
14. COR-L 105  0.412
15. NCI-H441  0.47
16. A549  0.505
17. HCC-15  0.509
18. EKVX  0.513
19. BEN  0.534
20. LOU-NH91  0.539
21. LCLC-103H  0.559
22. A-427  0.587
23. LK-2  0.603
24. HOP-62  0.62
25. NCI-H322M  0.625
26. LC-2-ad  0.662
27. ABC-1  0.679
28. Calu-6  0.698
29. COR-L23  0.717
30. ChaGo-K-1  0.78
31. LXF-289  0.794
32. 201T  0.808
33. HCC-827  1.06

These cell lines were tested with Cn1nnc2c(C(N)=O)ncn2c1=O [Temozolomide] + CS(=O)(=O)CCNCc1ccc(-c2ccc3ncnc(Nc4ccc(OCc5cccc(F)c5)c(Cl)c4)c3c2)o1 [Lapatinib] (partner 2 µM) in the same assay as above. Settings: first compound 0.2 µM.
Method in brief: as §1

In order of falling relative viability:
1. HOP-62  1.29
2. COR-L23  1.25
3. NCI-H23  1.22
4. HCC-366  1.18
5. Calu-6  1.17
6. HCC-44  1.14
7. LU99A  1.13
8. EPLC-272H  1.12
9. 201T  1.07
10. LK-2  1.01
11. A549  0.989
12. A-427  0.989
13. LC-2-ad  0.961
14. LXF-289  0.939
15. HCC-78  0.938
16. ABC-1  0.93
17. LCLC-97TM1  0.929
18. EMC-BAC-2  0.914
19. IA-LM  0.913
20. HCC-15  0.91
21. HARA  0.777
22. LOU-NH91  0.747
23. BEN  0.641
24. COR-L 105  0.392
25. HCC-827  0.207
26. EBC-1  0.197
27. EKVX  0.189

Same assay, conditions: first compound 0.6325 µM

In order of falling relative viability:
1. LCLC-97TM1  1.28
2. ABC-1  1.22
3. A-427  1.09
4. Calu-6  1.07
5. 201T  1.06
6. EPLC-272H  1.05
7. LK-2  1.04
8. NCI-H23  1.04
9. A549  1.03
10. COR-L23  1.03
11. LU99A  1.03
12. HOP-62  1.02
13. LC-2-ad  1.02
14. HCC-44  1.01
15. HCC-366  1
16. IA-LM  0.976
17. LXF-289  0.934
18. EMC-BAC-2  0.871
19. HCC-15  0.87
20. LOU-NH91  0.782
21. HARA  0.721
22. BEN  0.692
23. HCC-78  0.602
24. CAL-12T  0.585
25. NCI-H322M  0.568
26. COR-L 105  0.387
27. H3255  0.243
28. EKVX  0.238
29. HCC-827  0.238
30. EBC-1  0.193

Same assay, conditions: first compound 2 µM

In order of rising relative viability:
1. HCC-827  0.191
2. EKVX  0.204
3. H3255  0.233
4. EBC-1  0.252
5. COR-L 105  0.356
6. NCI-H322M  0.574
7. CAL-12T  0.601
8. LCLC-97TM1  0.655
9. BEN  0.66
10. HCC-78  0.791
11. LOU-NH91  0.791
12. LK-2  0.796
13. EMC-BAC-2  0.898
14. LXF-289  0.919
15. HCC-15  0.931
16. IA-LM  0.935
17. LC-2-ad  0.962
18. HARA  0.975
19. LU99A  0.977
20. A549  1.01
21. EPLC-272H  1.01
22. 201T  1.03
23. HOP-62  1.05
24. HCC-366  1.1
25. Calu-6  1.11
26. HCC-44  1.11
27. COR-L23  1.12
28. A-427  1.14
29. NCI-H23  1.15
30. ABC-1  1.18

Same assay, conditions: first compound 6.325 µM

In order of rising relative viability:
1. HCC-827  0.191
2. EBC-1  0.203
3. EKVX  0.242
4. HCC-78  0.321
5. COR-L 105  0.35
6. H3255  0.376
7. NCI-H322M  0.599
8. CAL-12T  0.607
9. LCLC-97TM1  0.611
10. LK-2  0.611
11. BEN  0.633
12. HARA  0.658
13. LOU-NH91  0.732
14. IA-LM  0.758
15. EPLC-272H  0.798
16. HCC-15  0.829
17. LXF-289  0.847
18. EMC-BAC-2  0.856
19. LU99A  0.87
20. A-427  0.91
21. LC-2-ad  0.964
22. NCI-H23  0.969
23. 201T  1.02
24. COR-L23  1.02
25. A549  1.03
26. HCC-44  1.05
27. HOP-62  1.05
28. HCC-366  1.08
29. Calu-6  1.13
30. ABC-1  1.16

Same assay, conditions: first compound 20 µM

In order of rising relative viability:
1. EBC-1  0.194
2. HCC-827  0.195
3. EKVX  0.197
4. H3255  0.241
5. COR-L 105  0.351
6. LK-2  0.392
7. BEN  0.467
8. A-427  0.487
9. NCI-H322M  0.535
10. IA-LM  0.716
11. HARA  0.732
12. HOP-62  0.75
13. LOU-NH91  0.763
14. CAL-12T  0.8
15. HCC-78  0.826
16. EMC-BAC-2  0.84
17. EPLC-272H  0.858
18. LXF-289  0.861
19. HCC-15  0.892
20. LC-2-ad  0.895
21. A549  0.912
22. NCI-H23  0.912
23. COR-L23  0.948
24. LU99A  0.966
25. HCC-44  0.975
26. 201T  1.03
27. HCC-366  1.07
28. Calu-6  1.16
29. LCLC-97TM1  1.21
30. ABC-1  1.3
